Measured values as given in US12194124B2, “Personal care compositions for treating odor causing bacteria and methods for the same” (Colgate-Palmolive Company, priority 2019, dated 2025).

Test system: S. Epidermidis
Assay: Growth inhibition assay in 96-well plate, optical density of S. Epidermidis
Format: cell-based, Staphylococcus epidermidis
Method: The efficacy of 2-butyl octanol for selectively promoting, inhibiting, reducing, and/or treating bacterial growth was evaluated. Particularly, the efficacy of 2-butyl octanol for selectively promoting, inhibiting, reducing, and/or treating bacterial growth of Corynebacterium and Staphylococcus was evaluated. To evaluate the efficacy, an active solution was prepared by emulsifying 2-butyl octanol with a nonionic surfactant, namely, Polysorbate 80. The active solution included the 2-butyl octanol and the Polysorbate 80 in a ratio of about 83:17. Both positive controls (including no active solution) and negative controls (including no bacteria) were also prepared.
A 96-well plate was utilized to evaluate the growth of the respective bacteria at varying dilutions. Each of the wells of a 96-well plate was aseptically filled with about 100 μL of Tryptic Soy Broth (TSB). In the first well of each row, about 100 μL of either the active solution (including the 2-butyl octanol and Polysorbate 80) or the desired solvent for the respective positive and negative controls was added to thereby provide a total of about 200 μL in the first well of the each respective row. A multi-channel pipette was then utilized to prepare a two-fold dilution in each column. Specifically, a multi-channel pipette set to about 100 μL was utilized to mix and transfer about 100 μL of the 200 μL from the wells of the first column to the respective wells of a subsequent column. This was repeated for each of the remaining eleven columns. About 100 μL of the twelfth column was removed, thereby leaving about 100 μL in each of the 96 wells. […] Specifically, a phosphate buffered saline (PBS) was utilized for the negative control. About 100 μL of the respective bacteria adjusted to 0.1 optical density (OD) bacteria was added to all other wells. The well plate was then incubated overnight at about 37° C. in a growth inhibition assay machine. Measurements were taken at about one hour increments.

## CCCCCCC(CO)CCCC (stereo not shown) [2-butyl octanol, 2-butyl-1-octanol]
0.02% 2-Butyl Octanol, 1 Hour
  Measured Optical Density of S. Epidermidis: 0.07
0.02% 2-Butyl Octanol, 2 Hour
  Measured Optical Density of S. Epidermidis: 0.327
0.02% 2-Butyl Octanol, 3 Hour
  Measured Optical Density of S. Epidermidis: 0.519
0.02% 2-Butyl Octanol, 4 Hour
  Measured Optical Density of S. Epidermidis: 0.561
0.02% 2-Butyl Octanol, 5 Hour
  Measured Optical Density of S. Epidermidis: 0.548
0.02% 2-Butyl Octanol, 6 Hour
  Measured Optical Density of S. Epidermidis: 0.564
0.02% 2-Butyl Octanol, 7 Hour
  Measured Optical Density of S. Epidermidis: 0.586
0.02% 2-Butyl Octanol, 8 Hour
  Measured Optical Density of S. Epidermidis: 0.593
0.02% 2-Butyl Octanol, 9 Hour
  Measured Optical Density of S. Epidermidis: 0.602
0.02% 2-Butyl Octanol, 10 Hour
  Measured Optical Density of S. Epidermidis: 0.623
0.02% 2-Butyl Octanol, 11 Hour
  Measured Optical Density of S. Epidermidis: 0.652
0.02% 2-Butyl Octanol, 12 Hour
  Measured Optical Density of S. Epidermidis: 0.651
0.02% 2-Butyl Octanol, 13 Hour
  Measured Optical Density of S. Epidermidis: 0.66
0.02% 2-Butyl Octanol, 14 Hour
  Measured Optical Density of S. Epidermidis: 0.689
0.02% 2-Butyl Octanol, 15 Hour
  Measured Optical Density of S. Epidermidis: 0.809
0.02% 2-Butyl Octanol, 16 Hour
  Measured Optical Density of S. Epidermidis: 0.893
0.02% 2-Butyl Octanol, 17 Hour
  Measured Optical Density of S. Epidermidis: 0.951
0.02% 2-Butyl Octanol, 18 Hour
  Measured Optical Density of S. Epidermidis: 0.97
0.04% 2-Butyl Octanol, 1 Hour
  Measured Optical Density of S. Epidermidis: 0.088
0.04% 2-Butyl Octanol, 2 Hour
  Measured Optical Density of S. Epidermidis: 0.351
0.04% 2-Butyl Octanol, 3 Hour
  Measured Optical Density of S. Epidermidis: 0.55
0.04% 2-Butyl Octanol, 4 Hour
  Measured Optical Density of S. Epidermidis: 0.583
0.04% 2-Butyl Octanol, 5 Hour
  Measured Optical Density of S. Epidermidis: 0.578
0.04% 2-Butyl Octanol, 6 Hour
  Measured Optical Density of S. Epidermidis: 0.592
0.04% 2-Butyl Octanol, 7 Hour
  Measured Optical Density of S. Epidermidis: 0.613
0.04% 2-Butyl Octanol, 8 Hour
  Measured Optical Density of S. Epidermidis: 0.64
0.04% 2-Butyl Octanol, 9 Hour
  Measured Optical Density of S. Epidermidis: 0.651
0.04% 2-Butyl Octanol, 10 Hour
  Measured Optical Density of S. Epidermidis: 0.664
0.04% 2-Butyl Octanol, 11 Hour
  Measured Optical Density of S. Epidermidis: 0.666
0.04% 2-Butyl Octanol, 12 Hour
  Measured Optical Density of S. Epidermidis: 0.656
0.04% 2-Butyl Octanol, 13 Hour
  Measured Optical Density of S. Epidermidis: 0.652
0.04% 2-Butyl Octanol, 14 Hour
  Measured Optical Density of S. Epidermidis: 0.675
0.04% 2-Butyl Octanol, 15 Hour
  Measured Optical Density of S. Epidermidis: 0.756
0.04% 2-Butyl Octanol, 16 Hour
  Measured Optical Density of S. Epidermidis: 0.825
0.04% 2-Butyl Octanol, 17 Hour
  Measured Optical Density of S. Epidermidis: 0.915
0.04% 2-Butyl Octanol, 18 Hour
  Measured Optical Density of S. Epidermidis: 0.961
0.08% 2-Butyl Octanol, 1 Hour
  Measured Optical Density of S. Epidermidis: 0.111
0.08% 2-Butyl Octanol, 2 Hour
  Measured Optical Density of S. Epidermidis: 0.482
0.08% 2-Butyl Octanol, 3 Hour
  Measured Optical Density of S. Epidermidis: 0.688
0.08% 2-Butyl Octanol, 4 Hour
  Measured Optical Density of S. Epidermidis: 0.703
0.08% 2-Butyl Octanol, 5 Hour
  Measured Optical Density of S. Epidermidis: 0.684
0.08% 2-Butyl Octanol, 6 Hour
  Measured Optical Density of S. Epidermidis: 0.677
0.08% 2-Butyl Octanol, 7 Hour
  Measured Optical Density of S. Epidermidis: 0.662
0.08% 2-Butyl Octanol, 8 Hour
  Measured Optical Density of S. Epidermidis: 0.652
0.08% 2-Butyl Octanol, 9 Hour
  Measured Optical Density of S. Epidermidis: 0.653
0.08% 2-Butyl Octanol, 10 Hour
  Measured Optical Density of S. Epidermidis: 0.658
0.08% 2-Butyl Octanol, 11 Hour
  Measured Optical Density of S. Epidermidis: 0.646
0.08% 2-Butyl Octanol, 12 Hour
  Measured Optical Density of S. Epidermidis: 0.63
0.08% 2-Butyl Octanol, 13 Hour
  Measured Optical Density of S. Epidermidis: 0.632
0.08% 2-Butyl Octanol, 14 Hour
  Measured Optical Density of S. Epidermidis: 0.662
0.08% 2-Butyl Octanol, 15 Hour
  Measured Optical Density of S. Epidermidis: 0.741
0.08% 2-Butyl Octanol, 16 Hour
  Measured Optical Density of S. Epidermidis: 0.795
0.08% 2-Butyl Octanol, 17 Hour
  Measured Optical Density of S. Epidermidis: 0.883
0.08% 2-Butyl Octanol, 18 Hour
  Measured Optical Density of S. Epidermidis: 0.943
0.16% 2-Butyl Octanol, 1 Hour
  Measured Optical Density of S. Epidermidis: 0.148
0.16% 2-Butyl Octanol, 2 Hour
  Measured Optical Density of S. Epidermidis: 0.564
0.16% 2-Butyl Octanol, 3 Hour
  Measured Optical Density of S. Epidermidis: 0.76
0.16% 2-Butyl Octanol, 4 Hour
  Measured Optical Density of S. Epidermidis: 0.786
0.16% 2-Butyl Octanol, 5 Hour
  Measured Optical Density of S. Epidermidis: 0.778
0.16% 2-Butyl Octanol, 6 Hour
  Measured Optical Density of S. Epidermidis: 0.764
0.16% 2-Butyl Octanol, 7 Hour
  Measured Optical Density of S. Epidermidis: 0.757
0.16% 2-Butyl Octanol, 8 Hour
  Measured Optical Density of S. Epidermidis: 0.741
0.16% 2-Butyl Octanol, 9 Hour
  Measured Optical Density of S. Epidermidis: 0.729
0.16% 2-Butyl Octanol, 10 Hour
  Measured Optical Density of S. Epidermidis: 0.726
0.16% 2-Butyl Octanol, 11 Hour
  Measured Optical Density of S. Epidermidis: 0.718
0.16% 2-Butyl Octanol, 12 Hour
  Measured Optical Density of S. Epidermidis: 0.702
0.16% 2-Butyl Octanol, 13 Hour
  Measured Optical Density of S. Epidermidis: 0.695
0.16% 2-Butyl Octanol, 14 Hour
  Measured Optical Density of S. Epidermidis: 0.702
0.16% 2-Butyl Octanol, 15 Hour
  Measured Optical Density of S. Epidermidis: 0.764
0.16% 2-Butyl Octanol, 16 Hour
  Measured Optical Density of S. Epidermidis: 0.801
0.16% 2-Butyl Octanol, 17 Hour
  Measured Optical Density of S. Epidermidis: 0.844
0.16% 2-Butyl Octanol, 18 Hour
  Measured Optical Density of S. Epidermidis: 0.874
2-butyl octanol about 0.02 weight % to about 5.2 weight %
  growth of S. epidermidis: did not inhibit the growth of and/or promoted the growth of
5.2% 2-Butyl Octanol, 1 Hour
  Measured Optical Density of S. Epidermidis: 0.257
5.2% 2-Butyl Octanol, 2 Hour
  Measured Optical Density of S. Epidermidis: 0.501
5.2% 2-Butyl Octanol, 3 Hour
  Measured Optical Density of S. Epidermidis: 0.583
5.2% 2-Butyl Octanol, 4 Hour
  Measured Optical Density of S. Epidermidis: 0.624
5.2% 2-Butyl Octanol, 5 Hour
  Measured Optical Density of S. Epidermidis: 0.665
5.2% 2-Butyl Octanol, 6 Hour
  Measured Optical Density of S. Epidermidis: 0.723
5.2% 2-Butyl Octanol, 7 Hour
  Measured Optical Density of S. Epidermidis: 0.855
5.2% 2-Butyl Octanol, 8 Hour
  Measured Optical Density of S. Epidermidis: 0.918
5.2% 2-Butyl Octanol, 9 Hour
  Measured Optical Density of S. Epidermidis: 0.994
5.2% 2-Butyl Octanol, 10 Hour
  Measured Optical Density of S. Epidermidis: 1.052
5.2% 2-Butyl Octanol, 11 Hour
  Measured Optical Density of S. Epidermidis: 1.067
5.2% 2-Butyl Octanol, 12 Hour
  Measured Optical Density of S. Epidermidis: 1.066
5.2% 2-Butyl Octanol, 13 Hour
  Measured Optical Density of S. Epidermidis: 1.081
5.2% 2-Butyl Octanol, 14 Hour
  Measured Optical Density of S. Epidermidis: 1.105
5.2% 2-Butyl Octanol, 15 Hour
  Measured Optical Density of S. Epidermidis: 1.118
5.2% 2-Butyl Octanol, 16 Hour
  Measured Optical Density of S. Epidermidis: 1.127
5.2% 2-Butyl Octanol, 17 Hour
  Measured Optical Density of S. Epidermidis: 1.142
5.2% 2-Butyl Octanol, 18 Hour
  Measured Optical Density of S. Epidermidis: 1.127
